From article PMC6843786, “Temporin-SHa and Its Analogs as Potential Candidates for the Treatment of Helicobacter pylori” (Biomolecules, 2019) come the findings set out here.

Usually MIC stands for the smallest concentration in the dilution series that meets the test's criterion for growth inhibition. Usually IC50 stands for the point on the concentration scale where inhibition reaches its midpoint.

The test system of series [1] is H. pylori (ATCC 43504). From the text:
(§1) H. pylori used in this study were either the reference strain obtained from the American Type Culture Collection (ATCC 43504) or clinical strains received frozen from our collaborator Josette Raymond from Hospital Cochin, Paris. Strains were obtained from patients who underwent a gastroendoscopy performed for various gastro-intestinal disorders according to the recommendations of Haute Autorité de Santé (HAS). During the endoscopy, biopsy samples were taken from antrum and corpus. Samples were then crushed, and the material was used for bacterial culture and molecular methods. An antibiogram was performed and strains were then frozen at -80 °C in a broth with 10% glycerol. Bacteria were cultured as previously described. Briefly, H. pylori (ATCC 43504) was cultured in brain heart infusion (BHI) and incubated at 37 °C for 16 h in microaerophilic condition in BD GasPak EZ using BD GasPak EZ CampyPak container system sachets (BD Biosciences, Le Pont-de-Claix, France). For clinical strains, a sample from the frozen bacteria was streaked on Blood Agar (Base) (Sigma-Aldrich, Illkirch-Graffenstaden, France) supplemented with 5% horse defibrinated blood (Fisher Scientific, Les Ulis, France) and 2% isovitale-X (Fisher Scientific, Illkirch-Graffenstaden, France). The petri dishes were then incubated at 37 °C for 4–7 days in microaerophilic condition. Then, a colony is transferred to 3 mL Mueller Hinton (MH) broth supplemented with 10% fetal bovine serum (FBS) and 2% isovitale-X. The cultures were then incubated for 4–7 days until the bacteria grow before further experiments.
(§2) Briefly, after the growth of H. pylori in liquid culture the optical density (OD) of the bacterial suspensions were read at 600 nm and adjusted to one. Stock solutions of the peptides at 1 mM were prepared in sterile water. Bacteria were diluted in medium to reach bacterial density around 10^5 bacteria/mL. One-hundred microliters per well of bacterial suspension were then added into sterile polypropylene 96-well microplates (Greiner BioOne, Paris, France) and exposed to increasing concentrations of peptides (from zero to 100 µM, 1:2 serial dilution). […] Plates were incubated at 37 °C for 24 h for H. pylori (ATCC 43504) and for 4–7 days for the clinical strains. H. pylori was tested in microaerophilic conditions generated using micro-anaerobic BD GasPak system. At the end of the incubation, OD600nm was measured using microplate reader (Synergy Mx, Biotek, Colmar, France). The MIC was defined as the lowest concentration of drug that inhibited visible growth of the organism. Experiments were conducted in independent triplicate (n = 3).

For series [2], the system named is clinical strains of H. pylori. The following applies: for MIC: MH + 10% FBS + 2% isovitale-X.
Text: as §1, §2

The subject of a further series is N87 cells. Briefly: In vitro toxicity assay using human gastric cells (resazurin). Type of series: cell-based. The protocol: [26] Human gastric cells N87 (ATCC CRL-5822) were cultured in RPMI-1640 medium supplemented with 10% fetal calf serum (FCS), 1% L-glutamine and 1% antibiotics (all from Invitrogen, Carlsbad, CA, USA) and were routinely seeded onto 25 cm^2 flasks maintained in a 5% CO2 incubator at 37 °C. For the toxicity assay, cells grown on 25 cm^2 flasks were detached using trypsin–EDTA solution (from Thermofisher), counted using Mallasez counting chamber and seeded into 96-well cell culture plates (Greiner Bio-one) at approximately 10^4 cells per well. The cells were left to grow for 48–72 h at 37 °C in a 5% CO2 incubator until they reached confluence. Plates were then aspirated and increasing concentrations of peptides were added to the cells for 48 h at 37 °C in a 5% CO2 incubator, volume of water corresponding to the volume of peptides being used as negative control. At the end of the incubation, wells were aspirated, and cell viability was evaluated using resazurin-based in vitro toxicity assay kit (Sigma-Aldrich) following manufacturer’s instructions. Briefly, resazurin stock solution was diluted 1:10 in sterile PBS containing calcium and magnesium (PBS^++, pH 7.4) and empty wells were filled with 100 µL of the diluted solution. After 4 h incubation at 37 °C, fluorescence intensity was measured using microplate reader (Synergy Mx, Biotek) with an excitation wavelength of 530 nm and an emission wavelength of 590 nm. The fluorescence values were normalized by the controls and expressed as percent viability.
A general note: Alamar Blue is a resazurin reagent that responds to reducing activity.

Series [3] concerns H. pylori (ATCC 43504). Briefly: Membrane permeabilization assay (propidium iodide). The following applies: propidium iodide, CTAB 300 µM = 100%. How it is done: Bacterial membrane permeabilization was evaluated using the cell-impermeable DNA/RNA probe propidium iodide as previously explained. Logarithmic growing bacterial suspension of H. pylori (ATCC 43504) was prepared from overnight bacterial suspension after 1:10 dilution. After 3 h incubation at 37 °C, in microaerophilic condition, bacterial suspensions were centrifuged for 5 min at 3000× g. Cell pellets were then resuspended in sterile PBS at about […]. Propidium iodide (solution at 1 mg/mL, Sigma Aldrich) was then added to the suspension at a final concentration of 60 µM. 100 µL of this suspension were then transferred into 96-well black plates and were exposed to increasing concentrations of peptides obtained by serial dilution (from zero to 100 µM, 1:2 dilution). […] Kinetics of fluorescence variations (excitation at 530 nm and emission at 590 nm) were then recorded over 240 min of incubation at 37 °C in micro-aerobic condition using a microplate reader (Biotek, Synergy Mx). The effect of the peptides on the membrane integrity was expressed in percentage of permeabilization, CTAB at 300 µM being used as positive control giving 100% permeabilization. All experiments were done in triplicate.

Series [4] has as its system total lipids extracted from H. pylori (ATCC 43504). The series can be described thus: Lipid insertion assay (lipid monolayer, critical pressure of insertion). Also noted: species or system biophysical. The settings on record: peptide 1 µM, PBS pH 7.4, from the line fits of Figure 4. How it is done: Peptide-lipid interaction was measured using reconstituted lipid monolayer at the air-water interface as previously described. Total lipids were extracted from overnight cultures of H. pylori (ATCC 43504) using Folch extraction procedure as previously described. Extracted total lipids were dried, resolubilized in chloroform:methanol (2:1, v/v) and stored at -20 °C under nitrogen. For peptide-lipid interaction assay, total lipid extract was spread using a 50 μL Hamilton's syringe at the surface of 800 μL of sterile PBS creating a lipid monolayer at the air-water interface. Lipids were added until the surface pressure reached the desired value. […] The variation of the surface pressure caused by peptide injection was then continuously monitored using a fully automated microtensiometer (μTROUGH SX, Kibron Inc., Helsinki, Finland) until reaching equilibrium (maximal surface pressure increase being usually obtained after 15-25 min). […] Variation of surface pressure was plotted as a function of initial surface pressure and the critical pressure of insertion of each peptide into H. pylori lipids was calculated as the theoretical value of initial pressure of lipid monolayer not permissive to peptide insertion, i.e., giving a variation of pressure equal to 0 mN/m.

Read-outs that look alike come from different tables or passages of the source. Non-standard residues stand in square brackets, D forms with d. Residues, ends and D or L forms follow the SMILES beside them.

For `CC[C@H](C)[C@H](NC(=O)CNC(=O)[C@H](CO)NC(=O)[C@H](CC(C)C)NC(=O)[C@@H](N)Cc1ccccc1)C(=O)N[C@H](C(=O)NCC(=O)N[C@@H](CCSC)C(=O)N[C@@H](CC(C)C)C(=O)N[C@H](C)C(=O)N[C@@H](CCCCN)C(=O)N[C@@H](CC(C)C)C(=O)N[C@@H](Cc1ccccc1)C(N)=O)C(C)C` [NST1, H-Phe^1-Leu^2-Ser^3-Gly^4-Ile^5-Val^6-Gly^7-Met^8-Leu^9-D-Ala^10-Lys^11-Leu^12-Phe^13-NH2] (H-FLSGIVGML[dA]KLF-NH2), in the series with H. pylori (ATCC 43504) [1] (MH medium, 24 h, microaerophilic), the “MIC on H. pylori (ATCC 43504)” value amounted to 1.5 µM. The “MIC on H. pylori (ATCC 43504) in MH supplemented with 10% FBS” value in the series on H. pylori (ATCC 43504) [1] (MH supplemented with 10% FBS) is reported as 6.25 µM. The “MIC values against resistant clinical strains (span over all strains)” value in series [2] (all resistant clinical strains, MH + 10% FBS) was in the range of 6.25 to 12.5 µM. Also, the MIC in series [2] (clinical strain BM18, resistance Clari/Metro) was 12.5 µM; in series [2] (clinical strain EM68, resistance Clari/Metro), 12.5 µM; in series [2] (clinical strain LN18, resistance Clari), 6.25 µM; in series [2] (clinical strain MF76, resistance Clari/Metro) it was 12.5 µM; in series [2] (clinical strain MP78, resistance Clari/Metro), 12.5 µM; in series [2] (clinical strain MS67, resistance Clari/Metro), 12.5 µM. Besides, in series [2] (clinical strain NM44, resistance Clari/Metro), the MIC is 6.25 µM. For the same compound, in the series on N87 cells (48 h incubation, resazurin cell viability, read-out: IC50 on N87 Cells), the IC50 came to 90.4 ± 10.4 µM. The “increase in toxicity to human gastric cells compared to temporin-SHa” value in the series with N87 cells (from IC50 on N87 cells) is given as around 17 fold. Moreover, the “membrane permeabilization of H. pylori (ranking in words)” value in the series on H. pylori (ATCC 43504) [3] was “strongest permeabilization”. In series [4], the “critical pressure of insertion (CPI)” value was 38.65 mN/m.
